Measurements: US20240043404A1 (AbbVie Inc., priority 2009, published 2024)

These compounds were tested on RS4;11 cells (assay: RS4;11 cell viability assay (CellTiter Glo)). Settings: 50,000 cells per well, 10% human serum, 48 hours; read-out: RS4; 11 EC50 Values.
Type: cell-based, human
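Further: acute lymphoblastic leukemia line RS4,11, EC50 derived from percentage of viable cells after treatment relative to untreated controls, cell killing taken as a measure of Bcl-2 inhibition.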
Method: The acute lymphoblastic leukemia (ALL) cell line RS4;11 was used as the primary human cell line to assess the cellular activity of Bcl-2 selective agents in vitro and their efficacy in vivo.
Cell cytotoxicity EC50 values were assessed using CellTiter Glo (Promega) according to the manufacturer's recommendations. The EC50 values were determined as a percentage of viable cells following treatment compared to the untreated control cells.

| EC50 [µM] | SMILES |
| --- | --- |
| 0.0034 | CC1(C)CCC(CN2CCN(c3ccc(C(=O)NS(=O)(=O)c4ccc(NC[C@H]5CC[C@](C)(O)CC5)c([N+](=O)[O-])c4)c(Oc4cnc5[nH]ccc5c4)c3)CC2)=C(c2ccc(Cl)cc2)C1 [Example 338, 4-(4-{[2-(4-chlorophenyl)-4,4-dimethylcyclohex-1-en-1-yl]methyl}piperazin-1-yl)-N-[(4-{[(cis-4-hydroxy-4-methylcyclohexyl)methyl]amino}-3-nitrophenyl)sulfonyl]-2-(1H-pyrrolo[2,3-b]pyridin-5-yloxy)benzamide] |

Same assay, conditions: Homo sapiens, RS4-11, 48 h, 50,000 cells per well, 10% human serum, 48 hours; read-out: RS4; 11 EC50 Values

| SMILES | EC50 [µM] |
| --- | --- |
| CC1(C)CCC(CN2CCN(c3ccc(C(=O)NS(=O)(=O)c4ccc(OCC5CN(C6CC6)CCO5)c(Cl)c4)c(Oc4cnc5[nH]ccc5c4)c3)CC2)=C(c2ccc(Cl)cc2)C1 (stereo not shown) [Example 331, N-({3-chloro-4-[(4-cyclopropylmorpholin-2-yl)methoxy]phenyl}sulfonyl)-4-(4-{[2-(4-chlorophenyl)-4,4-dimethylcyclohex-1-en-1-yl]methyl}piperazin-1-yl)-2-(1H-pyrrolo[2,3-b]pyridin-5-yloxy)benzamide] | 0.926 |
| CC1(C)CCC(CN2CCN(c3ccc(C(=O)NS(=O)(=O)c4ccc(NCC5CN(C6CC6)CCO5)c(Cl)c4)c(Oc4cnc5[nH]ccc5c4)c3)CC2)=C(c2ccc(Cl)cc2)C1 (stereo not shown) [Example 332, N-[(3-chloro-4-{[(4-cyclopropylmorpholin-2-yl)methyl]amino}phenyl)sulfonyl]-4-(4-{[2-(4-chlorophenyl)-4,4-dimethylcyclohex-1-en-1-yl]methyl}piperazin-1-yl)-2-(1H-pyrrolo[2,3-b]pyridin-5-yloxy)benzamide] | 0.457 |
| CCN(C)C(=O)N1CCOC(CNc2ccc(S(=O)(=O)NC(=O)c3ccc(N4CCN(CC5=C(c6ccc(Cl)cc6)CC(C)(C)CC5)CC4)cc3Oc3cnc4[nH]ccc4c3)cc2Cl)C1 (stereo not shown) [Example 333, 2-{[(2-chloro-4-{[4-(4-{[2-(4-chlorophenyl)-4,4-dimethylcyclohex-1-en-1-yl]methyl}piperazin-1-yl)-2-(1H-pyrrolo[2,3-b]pyridin-5-yloxy)benzoyl]sulfamoyl}phenyl)amino]methyl}-N-ethyl-N-methylmorpholine-4-carboxamide] | 0.463 |
| CCN(C)C(=O)N1CCO[C@H](COc2ncc(S(=O)(=O)NC(=O)c3ccc(N4CCN(CC5=C(c6ccc(Cl)cc6)CC(C)(C)CC5)CC4)cc3Oc3cnc4[nH]ccc4c3)cc2Cl)C1 [Example 334, (2S)-2-{[(3-chloro-5-{[4-(4-{[2-(4-chlorophenyl)-4,4-dimethylcyclohex-1-en-1-yl]methyl}piperazin-1-yl)-2-(1H-pyrrolo[2,3-b]pyridin-5-yloxy)benzoyl]sulfamoyl}pyridin-2-yl)oxy]methyl}-N-ethyl-N-methylmorpholine-4-carboxamide] | > 1 |
| CC1(C)CCC(CN2CCN(c3ccc(C(=O)NS(=O)(=O)c4cnc(NCC5CN(C6CC6)CCO5)c(Cl)c4)c(Oc4cnc5[nH]ccc5c4)c3)CC2)=C(c2ccc(Cl)cc2)C1 (stereo not shown) [Example 335, N-[(5-chloro-6-{[(4-cyclopropylmorpholin-2-yl)methyl]amino}pyridin-3-yl)sulfonyl]-4-(4-{[2-(4-chlorophenyl)-4,4-dimethylcyclohex-1-en-1-yl]methyl}piperazin-1-yl)-2-(1H-pyrrolo[2,3-b]pyridin-5-yloxy)benzamide] | 0.27 |
| CCN(C)C(=O)N1CCOC(CNc2ncc(S(=O)(=O)NC(=O)c3ccc(N4CCN(CC5=C(c6ccc(Cl)cc6)CC(C)(C)CC5)CC4)cc3Oc3cnc4[nH]ccc4c3)cc2Cl)C1 (stereo not shown) [Example 336, 2-{[(3-chloro-5-{[4-(4-{[2-(4-chlorophenyl)-4,4-dimethylcyclohex-1-en-1-yl]methyl}piperazin-1-yl)-2-(1H-pyrrolo[2,3-b]pyridin-5-yloxy)benzoyl]sulfamoyl}pyridin-2-yl)amino]methyl}-N-ethyl-N-methylmorpholine-4-carboxamide] | 0.351 |
| CC1(C)CCC(CN2CCN(c3ccc(C(=O)NS(=O)(=O)c4cnc(OC[C@@H]5C[C@H]6C[C@@H]5C[C@@]6(C)O)c(Cl)c4)c(Oc4cnc5[nH]ccc5c4)c3)CC2)=C(c2ccc(Cl)cc2)C1 [Example 339, N-[(5-chloro-6-{[(1R,2R,4R,5R)-5-hydroxy-5-methylbicyclo[2.2.1]hept-2-yl]methoxy}pyridin-3-yl)sulfonyl]-4-(4-{[2-(4-chlorophenyl)-4,4-dimethylcyclohex-1-en-1-yl]methyl}piperazin-1-yl)-2-(1H-pyrrolo[2,3-b]pyridin-5-yloxy)benzamide] | 0.45 |

Other lines, results leading:

| EC50 [µM] | SMILES |
| --- | --- |
| 0.0565 | CC1(C)CCC(CN2CCN(c3ccc(C(=O)NS(=O)(=O)c4ccc(NC5CCC(N(CCC#N)C6CC6)CC5)c([N+](=O)[O-])c4)c(Oc4cnc5[nH]ccc5c4)c3)CC2)=C(c2ccc(Cl)cc2)C1 (stereo not shown) [Example 340, 4-(4-{[2-(4-chlorophenyl)-4,4-dimethylcyclohex-1-en-1-yl]methyl}piperazin-1-yl)-N-{[4-({4-[(2-cyanoethyl)(cyclopropyl)amino]cyclohexyl}amino)-3-nitrophenyl]sulfonyl}-2-(1H-pyrrolo[2,3-b]pyridin-5-yloxy)benzamide] |
| 0.0509 | CC1(C)CCC(CN2CCN(c3ccc(C(=O)NS(=O)(=O)c4cnc(OCC5CCc6nccn6C5)c(Cl)c4)c(Oc4cnc5[nH]ccc5c4)c3)CC2)=C(c2ccc(Cl)cc2)C1 (stereo not shown) [Example 342, 4-(4-{[2-(4-chlorophenyl)-4,4-dimethylcyclohex-1-en-1-yl]methyl}piperazin-1-yl)-N-{[5-chloro-6-(5,6,7,8-tetrahydroimidazo[1,2-a]pyridin-6-ylmethoxy)pyridin-3-yl]sulfonyl}-2-(1H-pyrrolo[2,3-b]pyridin-5-yloxy)benzamide] |
| 0.127 | CC1(C)CCC(CN2CCN(c3ccc(C(=O)NS(=O)(=O)c4cnc(OC[C@H]5C[C@H]6C[C@@H]5C[C@@]6(C)O)c(Cl)c4)c(Oc4cnc5[nH]ccc5c4)c3)CC2)=C(c2ccc(Cl)cc2)C1 [Example 343, N-[(5-chloro-6-{[(1R,2S,4R,5R)-5-hydroxy-5-methylbicyclo[2.2.1]hept-2-yl]methoxy}pyridin-3-yl)sulfonyl]-4-(4-{[2-(4-chlorophenyl)-4,4-dimethylcyclohex-1-en-1-yl]methyl}piperazin-1-yl)-2-(1H-pyrrolo[2,3-b]pyridin-5-yloxy)benzamide] |
| 0.00925 | O=C(NS(=O)(=O)c1cnc(OCC2(F)CCN(C3COC3)CC2)c(Cl)c1)c1ccc(N2CCN(CC3=C(c4ccc(Cl)cc4)CC4(CC3)CC4)CC2)cc1Oc1cnc2[nH]ccc2c1 [Example 345, N-[(5-chloro-6-{[4-fluoro-1-(oxetan-3-yl)piperidin-4-yl]methoxy}pyridin-3-yl)sulfonyl]-4-(4-{[5-(4-chlorophenyl)spiro[2.5]oct-5-en-6-yl]methyl}piperazin-1-yl)-2-(1H-pyrrolo[2,3-b]pyridin-5-yloxy)benzamide] |
| 0.19 | CC1(C)CCC(CN2CCN(c3ccc(C(=O)NS(=O)(=O)c4ccc(NC5CCC(N6CCC(F)(F)C6)CC5)c([N+](=O)[O-])c4)c(Oc4cnc5[nH]ccc5c4)c3)CC2)=C(c2ccc(Cl)cc2)C1 (stereo not shown) [Example 346, 4-(4-{[2-(4-chlorophenyl)-4,4-dimethylcyclohex-1-en-1-yl]methyl}piperazin-1-yl)-N-[(4-{[4-(3,3-difluoropyrrolidin-1-yl)cyclohexyl]amino}-3-nitrophenyl)sulfonyl]-2-(1H-pyrrolo[2,3-b]pyridin-5-yloxy)benzamide] |
